Bounds are passed on as bounds.

T1 sequence (Q96P20 whole entry): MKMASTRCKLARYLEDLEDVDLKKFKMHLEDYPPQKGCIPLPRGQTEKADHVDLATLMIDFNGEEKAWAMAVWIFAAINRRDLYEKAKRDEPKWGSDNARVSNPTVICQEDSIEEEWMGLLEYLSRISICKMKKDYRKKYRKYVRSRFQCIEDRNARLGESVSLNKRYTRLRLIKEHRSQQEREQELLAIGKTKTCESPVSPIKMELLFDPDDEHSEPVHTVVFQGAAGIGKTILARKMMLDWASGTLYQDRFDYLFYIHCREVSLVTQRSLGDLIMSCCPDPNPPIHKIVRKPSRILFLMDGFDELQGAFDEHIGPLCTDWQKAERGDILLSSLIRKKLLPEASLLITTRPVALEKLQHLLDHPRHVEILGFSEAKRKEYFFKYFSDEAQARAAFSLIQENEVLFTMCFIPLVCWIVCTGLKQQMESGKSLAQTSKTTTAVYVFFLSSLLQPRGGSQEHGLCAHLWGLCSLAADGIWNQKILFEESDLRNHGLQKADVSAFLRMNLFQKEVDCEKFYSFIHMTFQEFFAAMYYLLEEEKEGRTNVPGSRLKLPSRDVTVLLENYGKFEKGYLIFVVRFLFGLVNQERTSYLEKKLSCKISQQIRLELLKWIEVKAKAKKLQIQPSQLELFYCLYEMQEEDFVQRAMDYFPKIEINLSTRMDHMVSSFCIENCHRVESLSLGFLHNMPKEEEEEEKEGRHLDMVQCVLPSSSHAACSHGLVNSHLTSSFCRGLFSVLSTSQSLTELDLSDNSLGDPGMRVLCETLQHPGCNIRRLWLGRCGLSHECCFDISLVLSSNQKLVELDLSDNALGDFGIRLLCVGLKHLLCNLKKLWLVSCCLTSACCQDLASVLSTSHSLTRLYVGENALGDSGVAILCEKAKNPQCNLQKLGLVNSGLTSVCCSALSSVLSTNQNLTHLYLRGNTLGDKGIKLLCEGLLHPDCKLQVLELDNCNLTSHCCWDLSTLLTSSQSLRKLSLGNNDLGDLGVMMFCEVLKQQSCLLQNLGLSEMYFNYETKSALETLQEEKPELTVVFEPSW

The assay concerns the target T1, NLRP3 inflammasomes (Homo sapiens, UniProt Q96P20).
T1 construct: endogenous in cells; host or cells: THP-1 human monocytic cells, PMA-differentiated, LPS-primed, nigericin-stimulated
Briefly: THP-1 pyroptosis test (cell pyroptosis test). The format is cell-based. The settings on record: THP-1 cells differentiated with PMA, LPS stimulation, 10 μM nigericin, drug 0.001-10 μM, MTT absorbance 562 nm. As to the method: In vitro activity screening was performed on small molecule compounds targeting inhibition on NLRP3 inflammasomes using THP-1 human monocytic cells (THP-1). THP-1 can be induced to differentiate into macrophages by phorbol ester (PMA), and the macrophages M1 can be induced to polarize by lipopolysaccharide (LPS) to release cytokines such as TNF-α, and IL-6, so as to establish a typical inflammatory model.
THP-1 cells in a logarithmic growth phase were collected to prepare a 1×10^6 cells/mL cell suspension, PMA was added to achieve a final concentration of 300 ng/mL in the cell suspension, then 1×10^5 cells were inoculated to each well of a 96-well plate, and the cells were cultured in a 37° C., 5% CO2 cell incubator for 24 hours and induced to differentiate into macrophages.
The next day, LPS was added to stimulate and induce the cells to produce an inflammatory model. […] In the 200 μL system of the 96-well plate, the final concentration of each drug was 0.001-10 μM, and the final concentration of the nigericin was 10 μM.
Cell apoptosis protection rate=[(X−C0)/(C−C0)]×100%
wherein, C, C0 and X represent average absorbance values of the normal cell group, the blank control group, and the drug treatment group, respectively. Finally, cell survival curves were fitted by Graphpad Prism 5.0 software and EC50 values of the compounds to be tested in inhibiting pyroptosis caused by NLRP3 inflammasomes were calculated.
Regarding `CCN1CC[C@@H](CNc2nnc(-c3ccc(C(F)(F)F)cc3O)c3c2cnn3C)C1` [Compound 71], the EC50 was > 1000 nM.
To `CN1CC[C@@H](Nc2nnc(-c3ccc(C(F)(F)F)cc3O)c3c2cnn3C)C1` [Compound 72] belongs 20 to 100 nM; to `Cn1ncc2c(NCCN3CCOCC3)nnc(-c3ccc(C(F)(F)F)cc3O)c21` [Compound 73], 500 to 1000 nM; to `Cc1ccc(-c2nnc(NCCN3CCOCC3)c3c2cnn3C)c(O)c1` [Compound 74], > 1000 nM.
The result for `CN1CCC(CNc2nnc(-c3ccc(C(F)(F)F)cc3O)c3c2cnn3C)CC1` [Compound 75] reads 100 to 500 nM.
As for `Cn1cnc2c(NCCN3CCOCC3)nnc(-c3ccc(C(F)(F)F)cc3O)c21` [Compound 76], the EC50 is > 1000 nM.
The result for `Cn1cnc2c(-c3ccc(C(F)(F)F)cc3O)nnc(NCCN3CCOCC3)c21` [Compound 77] reads > 1000 nM.
In the case of `Cn1cnc2c(N[C@H]3CCc4ncccc43)nnc(-c3ccc(C(F)(F)F)cc3O)c21` [Compound 78], the concentration giving a half-maximal response (EC50) is > 1000 nM.
The result for `Cn1cnc2c(N[C@H]3CCCc4ncccc43)nnc(-c3ccc(C(F)(F)F)cc3O)c21` [Compound 79] reads > 1000 nM.
To `Cn1cnc2c(-c3ccc(C(F)(F)F)cc3O)nnc(NCC3CCOCC3)c21` [Compound 80] belongs > 1000 nM.
`CN1CC(Nc2nnc(-c3ccc(C(F)(F)F)cc3O)c3ncn(C)c23)CCC1=O` (stereo not drawn) [Compound 81]: the concentration giving a half-maximal response (EC50) is > 1000 nM.
The result for `Cn1cnc2c(NCCN3CCOCC3)nnc(-c3ccc(F)cc3O)c21` [Compound 82] reads > 1000 nM; that for `CN1CCC[C@@H](Nc2nnc(-c3sccc3O)c3c2ncn3C)C1` [Compound 83], > 1000 nM; that for `Cn1cnc2c(O[C@@H]3CCCN(CC(F)(F)F)C3)nnc(-c3ccc(C(F)(F)F)cc3O)c21` [Compound 84], > 1000 nM.
`CN1CC[C@@H](Oc2nnc(-c3ccc(C(F)(F)F)cc3O)c3c2ncn3C)C1` [Compound 85]: the EC50 was > 1000 nM.
Take `CN1CCC[C@@H](Oc2nnc(-c3ccc(C(F)(F)F)cc3O)c3c2ncn3C)C1` [Compound 86]: the EC50 is > 1000 nM.
The result for `CC(C)N1CCC[C@@H](Nc2nnc(-c3ccc(C(F)(F)F)cc3O)c3c2cnn3C)C1` [Compound 87] reads < 20 nM; that for `CN1CCC[C@@H](Nc2nnc(-c3ccc(C(F)(F)F)cc3C(F)F)c3c2cnn3C)C1` [Compound 88], 20 to 100 nM.

Source of the values: US20240391881A1, “PHARMACEUTICAL USE AND PREPARATION METHOD FOR SUBSTITUTED HETEROARYL PHTHALAZINE DERIVATIVE” (ORIGIANT PHARMACEUTICAL CO., LTD., priority 2021, published 2024).
